22 compounds from US20080175794A1, “Substituted Pyridazinyl- and Pyrimidinyl-Quinolin-4-Ylamine Analogues” (NEUROGEN CORPORATION, priority 2005, published 2008) can be followed below.

SMILES strings stand for the structures.

In the assay the target is T1, human capsaicin receptor (Homo sapiens, UniProt Q8NER1).
T1 construct: expressed in transfected cells
The experiment in a line: Calcium mobilization assay, determination of antagonist activity (Example 6). In kind it is cell-based. The note with it: assay provided in Example 6, cells expressing human capsaicin receptor, capsaicin at EC50. Here is the method:
A cDNA encoding full length human capsaicin receptor (SEQ ID NO:1, 2 or 3 of U.S. Pat. No. 6,482,611) is subcloned in the plasmid pBK-CMV (Stratagene, La Jolla, Calif.) for recombinant expression in mammalian cells.
Human embryonic kidney (HEK293) cells are transfected with the pBK-CMV expression construct encoding the full length human capsaicin receptor using standard methods. The transfected cells are selected over two weeks in media containing G418 (400 μg/ml) to obtain a pool of stably transfected cells. Independent clones are isolated from this pool by limiting dilution to obtain clonal stable cell lines for use in subsequent experiments.
Cells transfected with expression plasmids (as described in Example 4) and thereby expressing human capsaicin receptor are seeded and grown to 70-90% confluency in FALCON black-walled, clear-bottomed 96-well plates (#3904, BECTON-DICKINSON, Franklin Lakes, N.J.). The culture medium is emptied from the 96 well plates and FLUO-3 AM calcium sensitive dye (Molecular Probes, Eugene, Oreg.) is added to each well (dye solution: 1 mg FLUO-3 AM, 440 μL DMSO and 440 μl 20% pluronic acid in DMSO, diluted 1:250 in Krebs-Ringer HEPES (KRH) buffer (25 mM HEPES, […], 0.96 mM NaH2PO4, 1 mM MgSO4, 2 mM CaCl2, 5 mM glucose, 1 mM probenecid, pH 7.4), 50 μl diluted solution per well). Plates are covered with aluminum foil and incubated at 37° C. for 1-2 hours in an environment containing 5% CO2. After the incubation, the dye is emptied from the plates, and the cells are washed once with KRH buffer, and resuspended in KRH buffer.
To measure the ability of a test compound to agonize or antagonize a calcium mobilization response in cells expressing capsaicin receptors to capsaicin or other vanilloid agonist, the EC50 of the agonist capsaicin is first determined. An additional 20 μl of KRH buffer and 1 μl DMSO is added to each well of cells, prepared as described above. 100 μl capsaicin in KRH buffer is automatically transferred by the FLIPR instrument to each well. Capsaicin-induced calcium mobilization is monitored using either FLUOROSKAN ASCENT (Labsystems; Franklin, Mass.) or FLIPR (fluorometric imaging plate reader system; Molecular Devices, Sunnyvale, Calif.) instruments. Data obtained between 30 and 60 seconds after agonist application are used to generate an 8-point concentration response curve, with final capsaicin concentrations of 1 nM to 3 μM. KALEIDAGRAPH software (Synergy Software, Reading, Pa.) is used to fit the data to the equation: […]
Test compounds are dissolved in DMSO, diluted in 20 μl KRH buffer so that the final concentration of test compounds in the assay well is between […] and 5 μM, and added to cells prepared as described above. The 96 well plates containing prepared cells and test compounds are incubated in the dark at room temperature for 0.5 to 6 hours. It is important that the incubation not continue beyond 6 hours. Just prior to determining the fluorescence response, 100 μl capsaicin in KRH buffer at twice the EC50 concentration determined as described above is automatically added by the FLIPR instrument to each well of the 96 well plate for a final sample volume of 200 μl and a final capsaicin concentration equal to the EC50. The final concentration of test compounds in the assay wells is between 1 μM and 5 μM. […] The concentration of antagonist required to provide a 50% decrease, relative to the response observed in the presence of capsaicin and without antagonist, is the IC50 for the antagonist, and is preferably below 1 micromolar, 100 nanomolar, 10 nanomolar or 1 nanomolar.

T1 sequence (Q8NER1 whole entry): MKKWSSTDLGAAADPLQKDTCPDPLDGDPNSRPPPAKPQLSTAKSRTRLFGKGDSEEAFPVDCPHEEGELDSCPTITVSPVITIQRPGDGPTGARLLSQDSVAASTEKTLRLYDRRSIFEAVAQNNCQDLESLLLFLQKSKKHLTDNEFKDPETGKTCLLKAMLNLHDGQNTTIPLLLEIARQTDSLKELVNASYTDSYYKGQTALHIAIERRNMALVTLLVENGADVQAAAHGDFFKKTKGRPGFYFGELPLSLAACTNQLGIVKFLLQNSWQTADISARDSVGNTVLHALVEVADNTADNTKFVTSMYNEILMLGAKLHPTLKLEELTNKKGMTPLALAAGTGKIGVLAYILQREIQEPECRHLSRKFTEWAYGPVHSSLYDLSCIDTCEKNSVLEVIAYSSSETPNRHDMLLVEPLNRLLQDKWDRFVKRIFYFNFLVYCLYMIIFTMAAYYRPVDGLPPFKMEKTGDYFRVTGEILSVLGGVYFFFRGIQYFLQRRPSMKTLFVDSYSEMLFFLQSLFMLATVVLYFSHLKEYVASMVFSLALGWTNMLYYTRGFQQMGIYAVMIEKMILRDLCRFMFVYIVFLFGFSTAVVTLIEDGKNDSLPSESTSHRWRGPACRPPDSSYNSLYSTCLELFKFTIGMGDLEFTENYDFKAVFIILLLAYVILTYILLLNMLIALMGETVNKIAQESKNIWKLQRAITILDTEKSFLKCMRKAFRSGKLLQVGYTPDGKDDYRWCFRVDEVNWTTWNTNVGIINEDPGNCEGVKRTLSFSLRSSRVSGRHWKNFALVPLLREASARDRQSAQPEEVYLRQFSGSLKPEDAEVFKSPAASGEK

Consider `FC(F)(F)c1ccc(Nc2ccnc3nc(-c4ncncc4C(F)(F)F)ccc23)nc1` [Compound 5, N-[5-(Trifluoromethyl)pyridin-2-yl]-7-[5-(trifluoromethyl)pyrimidin-4-yl]-1,8-naphthyridin-4-amine], for which the IC50 was less than 1 µM.
As to `CCN(CC)CCN(CC)c1cc(C(F)(F)F)c(-c2cnc3c(Nc4ccc(C(F)(F)F)cn4)ccnc3n2)nn1` [Compound 99, N,N,N′-triethyl-N′-[5-(trifluoromethyl)-6-(8-{[5-(trifluoromethyl)pyridin-2-yl]amino}pyrido[2,3-b]pyrazin-3-yl)pyridazin-3-yl]ethane-1,2-diamine], the IC50 (Table III) is less than 1 µM.
Same read-out and setting: the result for `FC(F)(F)CNc1cc(C(F)(F)F)c(-c2cnc3c(Nc4ccc(C(F)(F)F)cn4)ccnc3n2)nn1` [Compound 155, 3-{6-[(2,2,2-trifluoroethyl)amino]-4-(trifluoromethyl)pyridazin-3-yl}-N-[5-(trifluoromethyl)pyridin-2-yl]pyrido[2,3-b]pyrazin-8-amine] reads less than 1 µM; that for `CN(CCOCCO)c1cc(C(F)(F)F)c(-c2cnc3c(Nc4ccc(C(F)(F)F)cn4)ccnc3n2)nn1` [Compound 67, 2-(2-{methyl[5-(trifluoromethyl)-6-(8-{[5-(trifluoromethyl)pyridin-2-yl]amino}pyrido[2,3-b]pyrazin-3-yl)pyridazin-3-yl]amino}ethoxy)ethanol], less than 1 µM; that for `FC(F)(F)c1ccc(Nc2ccnc3nc(-c4nnc(NC5CCCCC5)cc4C(F)(F)F)cnc23)nc1` [Compound 110, 3-[6-(cyclohexylamino)-4-(trifluoromethyl)pyridazin-3-yl]-N-[5-(trifluoromethyl)pyridin-2-yl]pyrido[2,3-b]pyrazin-8-amine], less than 1 µM.
As to `OC1CCCN(c2cc(C(F)(F)F)c(-c3cnc4c(Nc5ccc(C(F)(F)F)cn5)ccnc4n3)nn2)C1` (stereo not shown) [Compound 195, 1-[5-(trifluoromethyl)-6-(8-{[5-(trifluoromethyl)pyridin-2-yl]amino}pyrido[2,3-b]pyrazin-3-yl)pyridazin-3-yl]piperidin-3-ol], under “Table III”, the IC50 was less than 1 µM.
Same read-out and setting: the result for `N#Cc1cc(C(F)(F)F)c(-c2cnc3c(Nc4ccc(C(F)(F)F)cn4)ccnc3n2)nn1` [Compound 55, 5-(trifluoromethyl)-6-(8-{[5-(trifluoromethyl)pyridin-2-yl]amino}pyrido[2,3-b]pyrazin-3-yl)pyridazine-3-carbonitrile] reads less than 1 µM; that for `CC(C)C(C)Nc1cc(C(F)(F)F)c(-c2cnc3c(Nc4ccc(C(F)(F)F)cn4)ccnc3n2)nn1` (stereo not shown) [Compound 111, 3-{6-[(1,2-dimethylpropyl)amino]-4-(trifluoromethyl)pyridazin-3-yl}-N-[5-(trifluoromethyl)pyridin-2-yl]pyrido[2,3-b]pyrazin-8-amine], less than 1 µM; that for `CCN(CC)c1cc(C(F)(F)F)c(-c2cnc3c(Nc4ccc(C(F)(F)F)cn4)ccnc3n2)nn1` [Compound 126, 3-[6-(diethylamino)-4-(trifluoromethyl)pyridazin-3-yl]-N-[5-(trifluoromethyl)pyridin-2-yl]pyrido[2,3-b]pyrazin-8-amine], less than 1 µM.
On the same count and under the same terms, next, `COCCCNc1cc(C(F)(F)F)c(-c2cnc3c(Nc4ccc(C(F)(F)F)cn4)ccnc3n2)nn1` [Compound 164, 3-{6-[(3-methoxypropyl)amino]-4-(trifluoromethyl)pyridazin-3-yl}-N-[5-(trifluoromethyl)pyridin-2-yl]pyrido[2,3-b]pyrazin-8-amine]: less than 1 µM; `FC(F)(F)c1ccc(Nc2ccnc3nc(-c4nnc(NCCCN5CCCC5)cc4C(F)(F)F)cnc23)nc1` [Compound 77, 3-{6-[(3-pyrrolidin-1-ylpropyl)amino]-4-(trifluoromethyl)pyridazin-3-yl}-N-[5-(trifluoromethyl)pyridin-2-yl]pyrido[2,3-b]pyrazin-8-amine]: less than 1 µM; `CC(CO)Nc1cc(C(F)(F)F)c(-c2cnc3c(Nc4ccc(C(F)(F)F)cn4)ccnc3n2)nn1` (stereo not shown) [Compound 117, 2-{[5-(trifluoromethyl)-6-(8-{[5-(trifluoromethyl)pyridin-2-yl]amino}pyrido[2,3-b]pyrazin-3-yl)pyridazin-3-yl]amino}propan-1-ol]: less than 1 µM.
On the same count and under the same terms, the result for `CN(CCCO)c1cc(C(F)(F)F)c(-c2cnc3c(Nc4ccc(C(F)(F)F)cn4)ccnc3n2)nn1` [Compound 137, 3-{methyl[5-(trifluoromethyl)-6-(8-{[5-(trifluoromethyl)pyridin-2-yl]amino}pyrido[2,3-b]pyrazin-3-yl)pyridazin-3-yl]amino}propan-1-ol] reads less than 1 µM; that for `CCC(COC)Nc1cc(C(F)(F)F)c(-c2cnc3c(Nc4ccc(C(F)(F)F)cn4)ccnc3n2)nn1` (stereo not shown) [Compound 166, 3-[6-{[1-(methoxymethyl)propyl]amino}-4-(trifluoromethyl)pyridazin-3-yl]-N-[5-(trifluoromethyl)pyridin-2-yl]pyrido[2,3-b]pyrazin-8-amine], less than 1 µM.
As to `CN1CCCC1CCNc1cc(C(F)(F)F)c(-c2cnc3c(Nc4ccc(C(F)(F)F)cn4)ccnc3n2)nn1` (stereo not shown) [Compound 72, 3-[6-{[2-(1-methylpyrrolidin-2-yl)ethyl]amino}-4-(trifluoromethyl)pyridazin-3-yl]-N-[5-(trifluoromethyl)pyridin-2-yl]pyrido[2,3-b]pyrazin-8-amine], the IC50 (Table III) is less than 1 µM.
The same measure, in the same setting: the result for `C=CCN1CCN(c2cc(C(F)(F)F)c(-c3cnc4c(Nc5ccc(C(F)(F)F)cn5)ccnc4n3)nn2)CC1` [Compound 86, 3-[6-(4-allylpiperazin-1-yl)-4-(trifluoromethyl)pyridazin-3-yl]-N-[5-(trifluoromethyl)pyridin-2-yl]pyrido[2,3-b]pyrazin-8-amine] reads less than 1 µM; that for `FC(F)(F)c1ccc(Nc2ccnc3nc(-c4nnc(NC5CCC5)cc4C(F)(F)F)cnc23)nc1` [Compound 107, 3-[6-(cyclobutylamino)-4-(trifluoromethyl)pyridazin-3-yl]-N-[5-(trifluoromethyl)pyridin-2-yl]pyrido[2,3-b]pyrazin-8-amine], less than 1 µM; that for `CC(C)N(C)c1cc(C(F)(F)F)c(-c2cnc3c(Nc4ccc(C(F)(F)F)cn4)ccnc3n2)nn1` [Compound 185, 3-{6-[isopropyl(methyl)amino]-4-(trifluoromethyl)pyridazin-3-yl}-N-[5-(trifluoromethyl)pyridin-2-yl]pyrido[2,3-b]pyrazin-8-amine], less than 1 µM.
For the compound `CC1CCN1c1cc(C(F)(F)F)c(-c2cnc3c(Nc4ccc(C(F)(F)F)cn4)ccnc3n2)nn1` (stereo not shown) [Compound 189, 3-[6-(2-methylazetidin-1-yl)-4-(trifluoromethyl)pyridazin-3-yl]-N-[5-(trifluoromethyl)pyridin-2-yl]pyrido[2,3-b]pyrazin-8-amine], the IC50 (Table III) was less than 1 µM.
Same read-out and setting: next, `CCC(C)CNc1cc(C(F)(F)F)c(-c2cnc3c(Nc4ccc(C(F)(F)F)cn4)ccnc3n2)nn1` (stereo not shown) [Compound 154, 3-{6-[(2-methylbutyl)amino]-4-(trifluoromethyl)pyridazin-3-yl}-N-[5-(trifluoromethyl)pyridin-2-yl]pyrido[2,3-b]pyrazin-8-amine]: less than 1 µM.
Same read-out and setting: the result for `CCCNc1cc(C(F)(F)F)c(-c2cnc3c(Nc4ccc(C(F)(F)F)cn4)ccnc3n2)nn1` [Compound 102, 3-[6-(propylamino)-4-(trifluoromethyl)pyridazin-3-yl]-N-[5-(trifluoromethyl)pyridin-2-yl]pyrido[2,3-b]pyrazin-8-amine] reads less than 1 µM.
Same read-out and setting: the result for `CC(C)Nc1cc(C(F)(F)F)c(-c2cnc3c(Nc4ccc(C(F)(F)F)cn4)ccnc3n2)nn1` [Compound 157, 3-[6-(isopropylamino)-4-(trifluoromethyl)pyridazin-3-yl]-N-[5-(trifluoromethyl)pyridin-2-yl]pyrido[2,3-b]pyrazin-8-amine] reads less than 1 µM.
